Values after ≈ are worked out from the molar mass of the structure shown. Where only a bound is given, the exact number is not on record here.

Series [1] concerns Staphylococcus sp. and Enterococcus sp. The experiment in a line: MIC, summary statements on reference Gram-positive cocci. The format is cell-based. The conditions noted are these: Staphylococcus and Enterococcus species, reference Gram-positive cocci (range over strains). How it is done: Sterile sheep blood defibrinated (GrasoBiotech). Co-trimoxazole (composition sulfamethoxazole 400 mg/trimethoprim 80 mg; WZF Polfa Poland). Ketoconazole (WZF Polfa Poland). Bacteria: Enterococcus hirae ATCC 10541 and Enterococcus faecalis ATCC 51299, Staphylococcus epidermidis ATCC 14990, Staphylococcus aureus ATCC 6538, clinical strains Staphylococcus aureus MRSA, clinical strains Staphylococcus sp. (MRCNS), clinical strain Staphylococcus epidermidis MRSE, clinical strain Enterococcus sp., Corynebacterium diphtheriae ZMF, Bacillus subtilis ATCC 6633, Escherichia coli ATCC 8739, Candida albicans ATCC 10231. Brain-heart infusion broth (BHI, Becton Dickinson) for Enterococcus hirae ATCC 10541 and Enterococcus faecalis ATCC 51299, BHI supplement with 10% bovine serum for Bacillus subtilis, Corynebacterium diphtheriae ZMF, Staphylococcus epidermidis ATCC 14990, Staphylococcus aureus ATCC 6538, clinical strains Staphylococcus aureus MRSA, clinical strains Staphylococcus sp. (CNS), clinical strain Staphylococcus epidermidis MRSE grew in Mueller-Hinton broth (MH cation-adjusted, Becton Dickinson) in an aerobic atmosphere at 37 °C for 48 h, in an aerobic atmosphere at 37 °C for 72 h. Candida albicans grew in Sabourauda broth (Sb, Becton Dickinson), in an aerobic atmosphere at 37 °C for 72 h. After determination of the bacterial viability, BHI blood agar plates, MH agar plates, and Sb agar plates were used.
The MIC determination for the reference and clinical strains was performed based on the methodology described by Kula et al.. The dry test samples were dissolved in dimethyl sulfoxide (DMSO) and diluted in water, resulting in a finale concentration of about 500 µg/mL. These solutions were diluted and added to the first well of each microtiter line. Dilution in geometric progression was done by transferring the mixture/dilution (100 μL) from the first to the twelfth well. An aliquot (100 μL) was discarded from the twelfth well. The final concentration of the samples used in the antimicrobial activity assay ranged from 125 to 0.006 µg/mL. Co-trimoxazole (for bacteria), with the composition sulfamethoxazole 400 mg/trimethoprim 80 mg was used as a reference compound in the concentration range of 20 000/4000 to 1/0.2 µg/mL. Ketoconazole (for fungi) was used as a reference compound in the concentration range of 125 to 0.006 µg/mL. Tests were incubated in adequate conditions described by Kula et al.. Diluent concentration had no effect on the activity of the tested compounds. All experiments were carried out three times.

The next series concerns S. aureus ATCC 6538. Description: Blood bacteriostatic activity test in sheep blood. In kind it is cell-based, Staphylococcus aureus. Particulars: 24 h, 37 °C, t0 1.30 × 10^8, control t24 2.28 × 10^9. The method, then:
The manifestation of the bactericidal properties of chemical compounds is low minimum bactericidal concentration (MBC) values, which allows many groups of researchers to check the killing rate over time (time killing tests). It is an important element in determining the strength and speed of action of a compound on bacteria. Such studies are usually carried out in bacterial media, without additional factors influencing the results.
This step was carried out on two types of bacteria, S. aureus ATCC 6538 (Figure 8 and Table 2) and S. epidermidis ATCC 14 990 (Figure 9 and Table 3).
The number of bacteria at the initial time (t0) was 1.30 × 10^8 CFU/mL for S. aureus and 1.70 × 10^7 CFU/mL for S. epidermidis. Live bacterial cells were assayed after 24 h of incubation at 37 °C. […] Bacterial controls without compounds grew unhindered and after 24 h (t24) were 2.28 × 10^9 for S. aureus and 5.10 × 10^8 CFU/mL for S. epidermidis. […] It can be assumed that the tested compounds were not related to any fraction of the blood. Attention should be paid to the S. epidermidis tests and the difference between the number of bacteria at t0 and after 24 h of incubation for each compound. The number of bacteria at t0 was 1.70 × 10^7 CFU/mL and after 24 h it decreased to, e.g., 9.40 × 10^6 CFU/mL for compounds 16e and 7.80 × 10^6 CFU/mL for compound 17c. It can be assumed that the tested compounds after being added to blood samples prevented bacteria from multiplying. However, under these conditions, the phagocytic cells take up the bacteria. […] This can be explained by much greater variety of mechanisms of action of S. aureus against phagocytic cells than of S. epidermidis. This can be integrated with the bacterial cell compounds, e.g., protein A, as well as enzymes that bacteria can secrete outside the cell, e.g., coagulase and staphylokinase. Additional studies should be conducted to check how the tested compounds affect the enzymes secreted by S. aureus.
The assay was performed as previously described by with a modification. Pure sheep blood was used for the research. Two strains of bacteria S. aureus ATCC 6538 and S. epidermidis ATCC 14990 were used with an inoculum density of approximately 10^8 CFU/mL at 0 time. The final concentration of the compounds was 0.5, 1, 2, 4, and 8 µg/mL, and the final volume of the assay tube was 1 mL. Bacterial survivors were determined on MH agar plates (CFU/mL) at 24 h after exposure.

A further series relates to SKOV-3 cells. Description: MTT assay. The format is cell-based, human. The conditions noted are these: for IC50: Homo sapiens, SK-OV-3, SKOV-3, MTT, 24 h treatment, read-out: IC50; for Selectivity index (SI): IC50 HEK-293 / IC50 SKOV-3. A general note: Tetrazolium assays rely on reduction of a dye to a coloured formazan, in cell work by metabolically active cells.
In series [2] the test system is cancer cells (HeLa, SKOV-3, MCF-7). The experiment in a line: MTT assay, summary statements on the cancer cells. The conditions noted are these: Homo sapiens, cell line not specified. The format is cell-based.
Series [3] relates to biofilm formation by MRSA clinical strains. The experiment in a line: Inhibition of biofilm formation (crystal violet), MRSA. The format is cell-based, Staphylococcus aureus. Particulars: 2 × MIC.
For series [4], the system named is 24 h biofilm already formed by MRSA strains. Description: Effect on 24 h biofilm already formed, MRSA. In kind it is cell-based, Staphylococcus aureus. Particulars: MRSA12677.
The next series is described as follows: in vitro. Particulars: sheep, defibrinated sheep blood diluted 1:9 v/v with PBS, pH 7.

For orientation: MIC means the lowest concentration found to suppress growth. Low readings indicate a more susceptible organism, high ones a less susceptible organism. One may read the IC50 as the concentration that inhibits the measured activity by half. For `Cc1cc(S(=O)(=O)NC(=O)/C=C/c2ccc(Cl)cc2)c(SCc2cccc3ccccc23)cc1Cl` [Compound 16d, (E)–N–{4–Chloro–5–methyl–2–[(naphthalen–1–yl)methylthio]phenylsulfonyl}–3–(4–chlorophenyl)acrylamide], the MIC in series [1] fell in the range of 1 to 2 µg/mL (≈ 1.84 to 3.69 µM). For the same compound, the “Number of viable cells of Staphylococcus aureus” value (“Number” for short) in the series with S. aureus ATCC 6538 (1 µg/mL) is 1.88 × 10^8 CFU/mL; in the series with S. aureus ATCC 6538 (2 µg/mL), 1.66 × 10^8 CFU/mL; with S. aureus ATCC 6538 (4 µg/mL), 1.58 × 10^8 CFU/mL; in the series with S. aureus ATCC 6538 (8 µg/mL), 1.27 × 10^8 CFU/mL. Also, the IC50 in the series on SKOV-3 cells was 7.87 ± 0.03 µg/mL (≈ 14.5 µM); in series [2] (MTT), less than 10 µg/mL; in series [2] (µg/mL bound converted), not above 20 µM. In the series on SKOV-3 cells, the “Selectivity index (SI)” value is reported as 1.4.
For the compound `Cc1cc(S(=O)(=O)NC(=O)/C=C/c2ccc(Cl)cc2)c(SCc2cc3c(cc2Cl)OCO3)cc1Cl` [Compound 17c, (E)–N–{4–Chloro–2–[(6–chlorobenzo[d][1,3]dioxol–5–yl)methylthio]–5–methylphenylsulfonyl}–3–(4–chlorophenyl)acrylamide], the MIC in series [1] fell in the range of 1 to 2 µg/mL (≈ 1.75 to 3.5 µM). In addition, the “Inhibition of biofilm formation compared with the control” value in series [3] (MRSA13318) is 98%; in series [3] (MRSA21804), 61%. The “Inhibition of biofilm already formed, in relation to the control” value in series [4] (2 × MIC) is on record as “about 40%”. Moreover, the “Number” value in the series with S. aureus ATCC 6538 (1 µg/mL) is on record as 2.24 × 10^8 CFU/mL; in the series on S. aureus ATCC 6538 (2 µg/mL) it was 1.09 × 10^8 CFU/mL; in the series on S. aureus ATCC 6538 (4 µg/mL), 2.02 × 10^8 CFU/mL; in the series with S. aureus ATCC 6538 (8 µg/mL) it was 9.35 × 10^7 CFU/mL. For the same compound, the IC50 with SKOV-3 cells is 12 ± 1.07 µg/mL (≈ 20.9 µM). In the series on SKOV-3 cells, the “Selectivity index (SI)” value came to 1.2. In “in vitro”, this compound returned a hemolysis at 24 h, 31.25 µg/mL of 12 to 20%.
As for `COc1ccc(/C=C/C(=O)NS(=O)(=O)c2cc(C)c(Cl)cc2SCc2cccc3ccccc23)cc1F` [Compound 16e, (E)–N–{4–Chloro–5–methyl–2–[(naphthalen–1–yl)methylthio]phenylsulfonyl}–3–(3–fluoro–4–methoxyphenyl)acrylamide], the “Inhibition of biofilm already formed, in relation to the control” value in series [4] (2 × MIC and 4 × MIC) is “about 53%”. In addition, the “Number” value is given as 2.15 × 10^8 CFU/mL in the series on S. aureus ATCC 6538 (1 µg/mL), 1.27 × 10^8 CFU/mL in the series with S. aureus ATCC 6538 (2 µg/mL), 1.94 × 10^8 CFU/mL in the series with S. aureus ATCC 6538 (4 µg/mL) and 2.80 × 10^8 CFU/mL in the series with S. aureus ATCC 6538 (8 µg/mL). Also, the IC50 in the series with SKOV-3 cells came out at 12.2 ± 0.23 µg/mL (≈ 21.9 µM). In the series on SKOV-3 cells, the “Selectivity index (SI)” value is on record as 0.8. In addition, the hemolysis at 24 h, 31.25 µg/mL in the series “in vitro” lay in the range of 12 to 20%.

The values above are taken from paper PMC10096175, “An In Vitro Antimicrobial, Anticancer and Antioxidant Activity of N–[(2–Arylmethylthio)phenylsulfonyl]cinnamamide Derivatives” (Molecules, 2023).
